We go through five compounds from PMC10675077, “Antimicrobial Properties of New Polyamines Conjugated with Oxygen-Containing Aromatic Functional Groups” (Molecules, 2023).

≈ marks a conversion by molar mass, not a printed value. Marks after values point to notes of the source that are not given here.

Assay [1] relates to Staphylococcus aureus BHI. Description: MIC, microdilution in culture medium, S. aureus. In kind it is cell-based. Particulars: 20 h, 37 °C, average of at least three experiments; for MIC: Staphylococcus aureus, read-out: MIC, Bacteria, S. aureus BHI. An excerpt: (§1) The microorganisms used for the susceptibility tests were the bacteria Escherichia coli JM101 and Staphylococcus aureus BHI, and the yeast Saccharomyces cerevisiae strains BY4741 (MAT a his3Δ1 leu2Δ0 met15Δ0 ura3Δ0 (EUROSCARF)) carrying YEplac195 (from EUROSCARF) or YEPlac195-PDR5 (provided by Ayse Banu Demir, Izmir University of Economics, Turkey) plasmids.
(§2) Bacterial strains were usually maintained and grown in an LB medium (0.5% (w/v) yeast extract, 1% (w/v) bactotryptone, and 1% (w/v) NaCl) at 37 °C. For MIC (minimal inhibitory concentration) and MMC (minimal microbicidal concentration) assays, and for the determination of synergies, overnight growth was carried out in 2% (w/v) bactopeptone (BP), and then the cultures were diluted and incubated for several hours in 2% (w/v) BP for ensuring logarithmic growth. Yeast strains were grown in an SC-ura medium (0.17% (w/v) yeast nitrogen base without amino acids and ammonium sulphate, 0.2% (w/v) drop-out without uracil, 0.5% (w/v) (NH4)2SO4, and 2% (w/v) glucose) at 30 °C. Liquid cultures were incubated with shaking (200 rpm). Solid media also contained 2% (w/v) agar.
For the analysis of the antimicrobial activity, the strategies and indications of Cushnie et al. were considered. The standardised method of microdilution in a culture medium was followed to determine the MIC [55]. In bacterial strains, serial dilutions of the compounds to be tested and the control antibiotics were prepared in phosphate buffer (20 mM, pH 7.4, 0.5 mL) and were mixed with a suspension of bacterial cells in a logarithmic growth phase (in 1% BP, 0.5 mL). The final OD600 of the whole solutions were 0.004 and 0.008 for E. coli and S. aureus cultures, respectively. After 20 h of incubation at 37 °C with shaking, the MIC was determined as the lowest concentration of each compound in which no visible bacterial growth was observed.
For orientation: Dilution methods test growth across graded concentrations, often in twofold steps.

Assay [2] concerns Saccharomyces cerevisiae BY4741/YEplac195. Description: microbe, parasite or virus in culture. Format: cell-based. Particulars: 24 h, 30 °C, average of at least three experiments; for MIC: Saccharomyces cerevisiae, read-out: MIC, Yeast, BY4741/ YEplac195.
Excerpt: as §1, §2
(§3) The determination of the MIC for yeast strains was carried out following a similar procedure to that of the polyamines and antifungal reference agents: Serial dilutions of each one in phosphate buffer (20 mM, pH 7.4, 0.5 mL) were prepared and mixed with a suspension of yeast cells (OD600 0.04 in SC-ura 2X (VWR, Atlanta, GA, USA), 0.5 mL). […] Experiments were carried out at least three times in all cases.

For assay [3], the system named is Saccharomyces cerevisiae BY4741/YEplac195-PDR5. In words: microbe, parasite or virus in culture. Format: cell-based. Conditions: 24 h; for MIC: Saccharomyces cerevisiae, read-out: MIC, Yeast, BY4741/ PDR5.
Excerpt: as §1, §2, §3

The subject of a further assay is BY4741/PDR5. Description: Checkerboard titration synergy, BY4741/PDR5. Conditions: synergistic when FICI ≤0.5. In kind it is cell-based, Saccharomyces cerevisiae. The method, then: The combined antimicrobial activity of the test compounds with the antibacterial or antifungal control agents was performed under the same conditions used for the MIC determination and following the procedures described by Carton Herrán, Reis de Sá et al. and Zharkova et al.. For each experiment, 16 samples (4 rows × 4 columns) in a total volume of 0.5 mL were prepared in tubes using an array of combinations between the MIC value and 0 μg/mL of the compound to be tested in each row, and between the MIC value and 0 μg/mL of the reference drug in each column. In this way, a variety of mixtures with different concentrations of them alone or in combination was obtained. Briefly, 0.5 mL of a microorganism culture was added to each one of the samples, and after incubation for 24 h with shaking at the appropriate temperature (37 °C or 30 °C), the tubs were visually inspected, and the OD600 was measured. From this information, the fractional inhibitory concentration index (FICI) was calculated according to the formula FIC index = ([A]/[CMI A]) + ([B]/[CMI B]), where [A] and [B] are respective concentrations of tested polyamine and reference drug in their combination effectively inhibiting the growth of bacteria or yeast, and [MIC A] and [MIC B] are the individual MICs of the tested polyamine and reference drug when they are used alone. An interaction is considered synergistic when the FICI value is ≤0.5 [41, 42].
To confirm the data obtained in the checkerboard assay, 30 μL of a ten-fold dilution of the tubes containing concentrations of half of the MIC of each one of the compounds alone (polyamine to be tested and reference drug) and one fourth of the MIC of each one in combination were also spread in LB or SC-ura plates (according to the microorganism considered in each case) and incubated at 37 °C or 30 °C. The visualisation of these plates was performed after 24 or 48 h, respectively. All these experiments were carried out in triplicate.

Another assay concerns S. cerevisiae strains. Description: Minimal fungicidal concentration, S. cerevisiae strains. Format: cell-based, Saccharomyces cerevisiae. Particulars: fungistatic = growth on SC-ura plates after incubation at four times the MIC. The method, then: (§4) Once the MIC was known, the samples were prepared as described in the previous section with polyamine concentrations corresponding to the MIC and half, double, and four times its value. After overnight incubation with the microorganisms, 30 μL of a ten-fold dilution of each one was spread in LB (in the case of bacterial strains) or SC-ura (for yeast strains) plates. They were incubated for 20 h at 37 °C (bacteria) or 48 h at 30 °C (yeasts), and the level of growth was determined. […] Experiments were carried out at least three times.

The subject of the next assay is S. aureus BHI. Description: Minimal bactericidal concentration, S. aureus. Format: cell-based, Staphylococcus aureus. Particulars: overnight incubation, plating on LB; for MBC: Staphylococcus aureus. Here is the method:
as §4

Turning to `Oc1ccc(CNCCN2CCNCc3cccc(n3)CNCC2)cc1` [Compound 7a], the MIC in assay [1] was 135 mg/L; in assay [2] it was 295 mg/L; in assay [3], 295 mg/L.

In the case of “N^1-(benzo[d][1,3]dioxol-5-ylmethyl)-N^3-(2-((2-((3-((benzo[d][1,3]dioxol-5-ylmethyl)amino)propyl)amino)ethyl)(2-((3-(((2,3-dihydrobenzofuran-6-yl)methyl)amino)propyl)amino)ethyl)amino)ethyl)propane-1,3-diamine [Compound 4a]”, in the assay on BY4741/PDR5, the “Synergy with Amphotericin B” value is “positive results and +”; the “Synergy with Cycloheximide” value was “positive results and +”. The “Minimal fungicidal concentration (MFC), S. cerevisiae Strains” value (shortened to “Minimal fungicidal concentration (MFC)”) with S. cerevisiae strains is listed as “Fungistatic”. The “Minimal bactericidal concentration (MBC), S. aureus BHI” value with S. aureus BHI is 8 ^a µg/mL. Also, the “MIC, Bacteria, S. aureus BHI” value in assay [1] came to 4 mg/L. Besides, the “MIC, Yeast, BY4741/ YEplac195” value in assay [2] turned out to be 150 mg/L. In addition, the “MIC, Yeast, BY4741/ PDR5” value in assay [3] (30 °C, Pdr5-overexpressing strain) was determined as 150 mg/L.

As usually defined, the MBC is the lowest tested concentration that kills the bacteria rather than only halting them. A low value points to greater bactericidal potency. Take `Oc1ccccc1CNCCN1CCNCc2cccc(n2)CNCC1` [Compound 6a]: the “Synergy with Amphotericin B” value in the assay with BY4741/PDR5 is “positive results and +”. Besides, in the assay on BY4741/PDR5, the “Synergy with Cycloheximide” value was “positive results and +”. The “Minimal fungicidal concentration (MFC)” value in the assay with S. cerevisiae strains is recorded as “Fungistatic”. In addition, in the assay with S. aureus BHI, the MBC is 160 mg/L (≈ 450 µM). For the same compound, the values for the MIC in assay [1], in assay [2] and in assay [3] were 40 mg/L, 45 mg/L and 45 mg/L, respectively.

In the assay with S. aureus BHI, `c1cc2nc(c1)CNCCN(CCNCc1ccc3c(c1)CCO3)CCNC2` [Compound 8a, 2-(3,6,9-triaza-1(2,6)-pyridinacyclodecaphane-6-yl)-N-((2,3-dihydrobenzofuran-5-yl)methyl)ethan-1-amine] yielded an MBC of 400 mg/L (≈ 1050 µM). For the same compound, the MIC was determined as 100 mg/L in assay [1], 400 mg/L in assay [2] and 400 mg/L in assay [3].

For the compound `c1cc2nc(c1)CNCCN(CCNCc1ccc3c(c1)OCO3)CCNC2` [Compound 5a, 2-(3,6,9-triaza-1(2,6)-pyridinacyclodecaphane-6-yl)-N-(benzo[d][1,3]dioxol-5-ylmethyl)ethan-1-amine], the “Synergy with Amphotericin B” value with BY4741/PDR5 is “positive results and +”. Besides, in the assay on BY4741/PDR5, the “Synergy with Cycloheximide” value is “positive results and +”. The “Minimal fungicidal concentration (MFC)” value in the assay with S. cerevisiae strains is given as “Fungistatic”. For the same compound, the MBC in the assay on S. aureus BHI amounted to 70 mg/L (≈ 183 µM). For the same compound, the MIC stood at 35 mg/L in assay [1], 60 mg/L in assay [2] and 60 mg/L in assay [3].
